What all share (assay type): in vivo, human
Assay [1] deals with patients with fibromyalgia (FM). In words: Planned double-blind crossover study of oral ribose in fibromyalgia. Conditions: 16 patients planned, 20 gm per day (10 gm bid), 4 weeks, crossover against dextrose placebo. The source says:
Following the informal studies in five subjects, a protocol was written to determine whether oral ribose administration in patients with fibromyalgia (FM) can reduce symptoms of fatigue and pain and improve the subjects' quality of life. The study endpoints will be: (1) the patient's visual analog (PVA) scale for pain, (2) the patient's analog scale for fatigue, (3) the physician's global assessment (GAphs), (4) the patient's global assessment (GAPT), (5) the Western Ontario MacMaster Questionaire (WOMAC) index, (6) SF-36 quality of life form, (7) the patient's's daily activity/events log and (8) the number of days to study discontinuation, if the patient chooses to do so, based upon his/her improved condition. The study will include 16 patients with a confirmed diagnosis of FM using a double-blind crossover design. All patients who meet entrance or screening criteria will be randomly assigned to either treatment #1 (oral dextrose as a placebo) or treatment #2 (oral ribose) at a dose of 20 gm per day (10 gm bid), as a first treatment modality. Both physician and patient will be blinded to the treatment modality. Informed consent will be obtained prior to enrolment. […] All endpoint parameters will be assessed at baseline prior to treatment, after 4 weeks of treatment one, at the end of the workout period, and again following 4 weeks of treatment 2 (“crossover” treatment modality). […]

The subject of a further assay is fibromyalgia patient. In words: Alleviation of symptoms in a fibromyalgia patient (single case, oral ribose). The text has this: A patient diagnosed with fibromyalgia had been experiencing extreme muscle pain and fatigue as well as irritable bowel syndrome, disturbed sleep, and cognitive dysfunction. They had been told by their physician that they were in the worst stage of the condition and could end up in a wheel chair within a year. They began taking ribose, one teaspoonful (about 5 grams), 4 times per day. […] They continued taking it for a week then decided to observe the effects of stopping the doses of ribose, so they discontinued the protocol for one week. […] They stated that “It is without a doubt the best product I have ever been on.”

The subject of another assay is fibromyalgia patients. In words: Applicants' general finding on steady ingestion of ribose. The settings on record: steady ingestion two to four times per day over the course of a week. The source says:
Continued ingestion leads to greater improvement, in turn allowing the patient to endure the much needed regular exercise to further relieve the painful symptoms.

The next assay has as its system fibromyalgia subjects. Briefly: Pilot study on the effect of ribose in alleviating the symptoms of fibromyalgia (SF-36 health status profile and subject reports). The source says:
Four women subjects ranging in age from 45 to 55 were given ribose and instructed to take at least 20 grams per day, preferably divided in four doses. The recommended mode of administration was one heaping teaspoon, about five to seven grams, mixed in six to eight ounces of water, taken preferably with meals and before planned activity. Subjects were encouraged to vary the dosage according to their perceived needs. Each subject was given a health status profile (SF-36) to complete. The profile was to be filled out both before and after four weeks of ribose administration. Two of the subjects complied with filling out the profile.
Health Status Profile (SF-36):
1) General health compared to one year ago: 1=much better, 2=somewhat better, 3=about the same, 4=somewhat worse, 5=much worse
2) Energy, 2 questions, from peppy all of the time to none of the time.
3) Activities, 12 examples from vigorous to mild, scored as: limited a lot, limited a little, not limited
4) Pain: 1=none, 2=very mild, 3=mild, 4=moderate, 5=severe, 6 =very severe The results of each subject's before and after ratings are summarized in Table I.

The mark [2] stands for this setting: after resuming, one teaspoonful 4 times per day, after 4 weeks.

For the compound `O=C[C@H](O)[C@H](O)[C@H](O)CO` [ribose, D-ribose], the “Expected alleviation of achiness, fatigue and/or pain at the tender points” value in assay [1] is on record as “most of the patients will experience some alleviation of achiness, fatigue and/or pain at the tender points”. In addition, in the assay with fibromyalgia patient (setting [2]), the “Irritable painful bowel syndrome” value is reported as “improved their irritable painful bowel syndrome”; the “Pain, fatigue and morning stiffness” value is “alleviated their pain, fatigue and morning stiffness”. The “Energy and flare ups of muscle soreness” value with fibromyalgia patient (patient, about 5 grams 4 times per day, first week) was “more energy and fewer flare ups of muscle soreness”. Further, in the assay on fibromyalgia patient (patient, about 5 grams 4 times per day, oral), the “Symptoms on starting ribose” value was “immediate improvement in their symptoms”. Moreover, the “Symptoms after discontinuing ribose” value in the assay on fibromyalgia patient (protocol discontinued for one week) is “symptoms returned to their previous level”. Moreover, in the assay on fibromyalgia patients, the “Fatigue, achiness, pain, energy and irritable bowel syndrome” value was “noticeable improvement in the level of fatigue, achiness, pain, and energy, and alleviation of irritable bowel syndrome”. Moreover, the “General health compared to last year, after” value in the assay on fibromyalgia subjects (Subject #1, 45-54, fibromyalgia for 15 years, after four weeks of ribose, at least 20 grams per day, before: much worse, after cell wraps r10-r11: somewhat better) is recorded as “somewhat”. Besides, the “Activities (12 total) limited a lot, after” value in the assay on fibromyalgia subjects (Subject #1, after four weeks of ribose, before: 8 of 12 limited a lot) is 1 of 12 limited a. Moreover, the “Energy, after” value with fibromyalgia subjects (Subject #1, after four weeks of ribose, before: little of the time, after cell wraps r11-r12: all of the time) was “all of the”. In addition, in the assay with fibromyalgia subjects (Subject #1, after four weeks of ribose, before: very severe), the “Pain, after” value is reported as “moderate”. Also, the “General health compared to last year, after” value in the assay on fibromyalgia subjects (Subject #2, 50-55, fibromyalgia for several years, after four weeks of ribose, before: somewhat better) is on record as “much better”. In addition, the “Activities (12 total) limited, after” value in the assay on fibromyalgia subjects (Subject #2, after four weeks of ribose, before: 2 of 12 limited a lot) is 0 of 12 limited. Also, the “Energy, after” value in the assay with fibromyalgia subjects (Subject #2, after four weeks of ribose, before: none of the time, after cell wraps r16-r17: some of the time) is given as “some of the”. Also, the “Pain, after” value in the assay with fibromyalgia subjects (Subject #2, after four weeks of ribose, before: severe) is “moderate”. Further, in the assay on fibromyalgia subjects (Subject #3), the Energy entry is listed as “more energetic”, the “Energy after cessation of administration” value is reported as “next-day loss of energy” and the “Severe pain at the tender points” value is listed as “did not feel a decrease in severe pain at the tender points”. Besides, the “Fatigue level and achiness” value in the assay on fibromyalgia subjects (Subject #3, compliant with protocol, no profile) was “improvement in their fatigue level and less achiness”. The “Energy when ribose is taken on feeling exhausted” value with fibromyalgia subjects (Subject #4, did not follow the protocol) is given as “feel more energetic”. In the assay on fibromyalgia subjects (Subjects #1 and #2, on suspending ribose), the “Energy and aching after suspending ribose administration” value was “drop in energy and increase in aching within a day”. Moreover, the “Overall relief from symptoms of fibromyalgia” value in the assay with fibromyalgia subjects (all subjects of the pilot study) is reported as “all reported some alleviation”.

(Values after US6703370B1, “Use of ribose to treat fibromyalgia” (Bioenergy, Inc., priority 1999, dated 2004).)
